As a reminder, the Ki is the equilibrium dissociation constant of an inhibitor or competing ligand from its target.

Experimental findings from patent US7956082B2, “Indole derivative having PGD2 receptor antagonist activity” (Shionogi & Co., Ltd, priority 2005, dated 2011) are described below.

Assay [1] has as its target T1, DP receptor (Homo sapiens, UniProt Q13258).
T1 construct: endogenous in cells; host or cells: washed platelets from peripheral blood of a healthy volunteer (whole platelets in A1, platelet membrane fraction in A2)
T1 sequence (Q13258 1-359): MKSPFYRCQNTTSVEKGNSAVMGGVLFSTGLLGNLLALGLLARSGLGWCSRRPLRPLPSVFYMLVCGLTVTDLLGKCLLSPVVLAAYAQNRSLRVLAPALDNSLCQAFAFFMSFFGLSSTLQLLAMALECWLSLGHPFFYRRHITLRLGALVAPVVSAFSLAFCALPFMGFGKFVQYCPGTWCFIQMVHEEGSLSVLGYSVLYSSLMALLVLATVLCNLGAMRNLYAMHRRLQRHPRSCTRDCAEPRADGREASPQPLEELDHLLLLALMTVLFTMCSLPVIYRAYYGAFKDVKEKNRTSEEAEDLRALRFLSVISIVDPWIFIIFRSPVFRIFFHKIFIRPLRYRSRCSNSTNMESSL
In words: Receptor binding assay, [3H]-PGD2, platelet membrane. The settings on record: [3H]-PGD2, human platelet membrane, on ice 2 hours. The method, then: 2) Receptor Binding Assay A prepared WP was homogenated and a membrane fraction was collected with high-speed centrifugation. A compound of the present invention or a reference compound A(No. IC-73 in WO 2003/097598) was added to the plate and [^3H]-PGD2 was also added. A platelet membrane, a protein concentration is 2 mg/mL, was added and mixed in the plate, and placed on ice for 2 hours. The reaction solution was transferred to a low protein-adsorptive filter and washed with a wash solution eight times using a cell harvester. After the final washing, water was removed sufficiently, and micoscinti was added. DP inhibitory activity was investigated by measuring [^3H] by using Micro Beta.

Assay [2] deals with T1, DP receptor. In words: cAMP assay with washed platelets (DP inhibitory activity in vitro). The format is cell-based. The settings on record: 100 nM PGD2, cAMP by HTRF, read-out: IC50 (50% DP-inhibitory concentration in the cAMP assay). The procedure:
1) Preparation of Platelet and a Method of cAMP Assay
30 ml of peripheral blood was collected from a healthy volunteer using a syringe containing one ninth amount of 3.8% sodium citrate for diagnosis. After being centrifuged at 180 g for 10 minutes at room temperature, a supernatant was collected and used as Platelet Rich Plasma (PRP). The resulting PRP was washed with wash buffer and centrifuged three times (Washed Platelet: WP) and platelets were counted by a microcell counter. WP was added to a plate in amount of 1.5×10^8/assay and the plate was treated, with 3-isobutyl-1-methylxanthin (IBMX; 0.5 mM) for 5 minutes. A reaction was initiated by adding 100 nM of PGD2 5 min after an addition of a test compound. The reaction was terminated with an addition of 1N HCl after 2 minutes and the cells were destructed using 12% triton X-100. An amount of cAMP in the supernatant was assayed by Homogeneous […] (HTRF)
On the technique in general: cAMP levels reflect the balance of adenylyl cyclase and phosphodiesterase activity.

For a further assay, the system named is Brown Norway (BN) Rats. In words: Test using OVA asthma model of rat. The format is in vivo. The settings on record: 10 mg/kg p.o. once a day for three days, vs control group; for inhibition rate (%) increased hyperresponsive airway: AUC of acetylcholine response curve; for inhibition rate (%) mucus-secretion: mucin in airway lavage fluid; for inhibition rate (%) infiltration of inflammatory cells: total cell number in bronchoalveolar washings. The procedure:
Brown Norway (BN) Rats were sensitized by i.p. administration of 0.1 mg/mL of ovalbumin (OVA) and 1 mg of aluminum hydroxide gel. A solution of 1% OVA was aerosolized by ultrasonic nebulizer (NE-U17) and the rats were subjected to inhalation exposure of the aerosol for 30 minutes in an exposing chamber 12, 19, 26 and 33 days after the sensitization. One hour before the 4th exposure of the antigen, compounds of the present invention were administered in a dose of 10 mg/kg p.o. once a day for three days consecutively. In a control group, 0.5% of methyl cellulose was administered in place of the compound of the present invention.
Under pentobarbital anesthesia (80 mg/kg, i.p.), acetylcholine (3.9, 7.8, 15.6, 31.3, 62.5, 125, 250 and 500 μg/kg) was injected to jugular vein of the rats successively from a lower dose at intervals of 5 minutes three days after the fourth exposure to the antigen, and immediate contractile reaction of airways (an increase of insufflation pressure) was measured by a modified method of Konnzett & Rössler. Inhibition rate of increased hyperresponsive airway against the control group was calculated based on area under curve (AUC) obtained from concentration-response curve of acetylcholine.
After the measurement of increased hyperresponsive airway was; completed, bronchoalveoli of the rats were washed with 5 mL of saline three times. Total cell number in the washings was counted by a hemacytometer under light microscope, and inhibition rates of infiltration of inflammatory cells against the control group were calculated. Further, muchin in the airway lavage fluid was measured by ELIZA method using jacalin, a muchin-binding lectin, and the inhibition rates of mucus-secretion against the control group were calculated.

In the case of `CC(C)Oc1ccc(S(=O)(=O)N2CCC(c3cn(CC(=O)O)c4ccc(F)cc34)CC2)cc1` [Compound I-23], affinity at DP receptor [1] was put at a Ki of 2.2 nM. On DP receptor [2], the IC50 came out at 1.9 nM.
With `CC(C)Oc1ccc(S(=O)(=O)N2CCC(c3cn(CC(=O)O)c4cc(-c5ccccn5)ccc34)CC2)cc1` [Compound I-99], the IC50 at DP receptor [2] was 1.9 nM.
In the case of `CC(C)Oc1ccc(S(=O)(=O)N2CCC(c3cn(CC(=O)O)c4ccc(Cl)cc34)C2)cc1` (stereo not drawn) [Compound I-10], the Ki at DP receptor [1] amounted to 2.5 nM. On DP receptor [2], the IC50 worked out at 1 nM.
On DP receptor [1], `CC(C)Oc1ccc(S(=O)(=O)N2CCC(c3cn(CC(=O)O)c4cc(-c5nccs5)ccc34)C2)cc1` (stereo not drawn) [Compound I-93] registered a Ki of 0.24 nM. For the same compound, on DP receptor [2], the IC50 is 0.5 nM.
Consider `CC(C)Oc1ccc(S(=O)(=O)N2CCC(c3cn(CC(=O)O)c4c(Cl)cccc34)C2)cc1` (stereo not drawn) [Compound I-19], for which the Ki at DP receptor [1] came out at 4.2 nM. Moreover, the IC50 on DP receptor [2] worked out at 1.3 nM.
Turning to `CC(C)Oc1ccc(S(=O)(=O)N2CCC(c3cn(CC(=O)O)c4cc(Cl)ccc34)C2)cc1` (stereo not drawn) [Compound I-14], in the assay on Brown Norway (BN) Rats, the “inhibition rate (%) increased hyperresponsive airway” value came to 31%, the “inhibition rate (%) mucus-secretion” value is 55% and the “inhibition rate (%) infiltration of inflammatory cells” value (“inhibition rate (%) infiltration” for short) is listed as 57%. On DP receptor [1], this compound returned a Ki of 2.1 nM. Besides, the IC50 at DP receptor [2] turned out to be 0.98 nM.
Take `CC(C)Oc1ccc(S(=O)(=O)N2CCC(c3cn(CC(=O)O)c4cc(-c5ccc(C#N)cc5)ccc34)C2)cc1` (stereo not drawn) [Compound I-72]: on DP receptor [2], the IC50 came out at 2.2 nM.
Regarding `CC(C)Oc1ccc(S(=O)(=O)N2CCC(c3cn(CC(=O)O)c4cc(-c5ccsc5)ccc34)C2)cc1` (stereo not drawn) [Compound I-67], the IC50 on DP receptor [2] is 1.4 nM.
For the compound `CC(C)Oc1ccc(S(=O)(=O)N2CCC(c3cn(CC(=O)O)c4cc(N5CCOCC5)ccc34)C2)cc1.Cl` (stereo not drawn) [Compound I-82], in the assay with Brown Norway (BN) Rats, the “inhibition rate (%) increased hyperresponsive airway” value is reported as 59%, the “inhibition rate (%) mucus-secretion” value is listed as 47% and the “inhibition rate (%) infiltration” value worked out at 35%.
Regarding `CC(C)Oc1ccc(S(=O)(=O)N2CCC(c3cn(CC(=O)O)c4cc(-c5nccs5)ccc34)CC2)cc1` [Compound I-100], the IC50 on DP receptor [2] turned out to be 1.9 nM.
In turn, `CC(C)Oc1ccc(S(=O)(=O)N2CC[C@@H](c3cn(CC(=O)O)c4cc(-c5ccco5)ccc34)C2)cc1` [Compound I-101] came in with a Ki at DP receptor [1] of 0.21 nM. The IC50 on DP receptor [2] turned out to be 0.27 nM.
For the compound `CC(C)Oc1ccc(S(=O)(=O)N2CCC(c3cn(CC(=O)O)c4c(Cl)cc(Cl)cc34)C2)cc1` (stereo not drawn) [Compound I-45], the Ki at DP receptor [1] worked out at 19 nM. Besides, at DP receptor [2], the IC50 stood at 1.5 nM.
For `CC(C)Oc1ccc(S(=O)(=O)N2CCC(c3cn(CC(=O)O)c4ccc(F)cc34)C2)cc1` (stereo not drawn) [Compound I-9], in that order: 4.5 nM and 2.3 nM.
In the case of `CC(C)Oc1ccc(S(=O)(=O)N2CCC(c3cn(CC(=O)O)c4ccc(Cl)cc34)CC2)cc1` [Compound I-3], the affinity at DP receptor [1] corresponds to a Ki of 1.3 nM. For the same compound, the IC50 at DP receptor [2] was 1.3 nM.
With `CC(C)Oc1ccc(S(=O)(=O)N2CCC(c3cn(CC(=O)O)c4cc(-c5ccoc5)ccc34)C2)cc1` (stereo not drawn) [Compound I-78], the IC50 at DP receptor [2] was 1.2 nM.
Still for that read-out and setting: the result for `CC(C)Oc1ccc(S(=O)(=O)N2CCC(c3cn(CC(=O)O)c4cc(N5CCCC5=O)ccc34)C2)cc1` (stereo not drawn) [Compound I-107] reads 2.3 nM.
As to `CC(C)Oc1ccc(S(=O)(=O)N2CCC(c3cn(CC(=O)O)c4cc(-c5ccco5)ccc34)C2)cc1` (stereo not drawn) [Compound I-77], in the assay with Brown Norway (BN) Rats, the “inhibition rate (%) increased hyperresponsive airway” value is reported as 110%, the “inhibition rate (%) mucus-secretion” value came out at 72% and the “inhibition rate (%) infiltration” value turned out to be 28%. Further, the affinity at DP receptor [1], expressed as Ki, was 0.37 nM. Further, the IC50 at DP receptor [2] was determined as 0.62 nM.
For `CC(C)Oc1ccc(S(=O)(=O)N2CC[C@@H](c3cn(CC(=O)O)c4cc(-c5ncco5)ccc34)C2)cc1` [Compound I-103], in that order: 71%, 52%, 58%, 20 nM and 0.14 nM.
Take `COc1cccc(-c2ccc3c(C4CCN(S(=O)(=O)c5ccc(OC(C)C)cc5)C4)cn(CC(=O)O)c3c2)c1` (stereo not drawn) [Compound I-81]: at DP receptor [2], the IC50 worked out at 0.86 nM.
For the compound `CC(C)Oc1ccc(S(=O)(=O)N2CCC(c3cn(CC(=O)O)c4cc(-c5nnco5)ccc34)C2)cc1` (stereo not drawn) [Compound I-88], at DP receptor [1], the Ki was 2.5 nM. The IC50 on DP receptor [2] stood at 1.2 nM.
Taken in the same sequence, the figures for `CC(C)Oc1ccc(S(=O)(=O)N2CCC(c3cn(CC(=O)O)c4cc(-c5ncco5)ccc34)CC2)cc1` [Compound I-104] were 1.3 nM and 1.2 nM.
Turning to `CC(C)Oc1ccc(S(=O)(=O)N2CC[C@@H](c3cn(CC(=O)O)c4cc(Cl)ccc34)C2)cc1` [Compound I-79], on DP receptor [1], the affinity, expressed as Ki, was 0.91 nM. Also, the IC50 on DP receptor [2] was 0.19 nM.
Consider `CC(C)Oc1ccc(S(=O)(=O)N2CC[C@@H](c3cn(CC(=O)O)c4cc(-c5nccs5)ccc34)C2)cc1` [Compound I-96], for which the inhibition constant (Ki) at DP receptor [1] came out at 0.21 nM. In addition, at DP receptor [2], the IC50 is 0.23 nM.
Regarding `CC(C)Oc1ccc(S(=O)(=O)N2CCC(c3cn(CC(=O)O)c4cc(-c5cccs5)ccc34)C2)cc1` (stereo not drawn) [Compound I-66], the IC50 on DP receptor [2] came to 1.9 nM.
For the compound `COc1ccc(-c2ccc3c(C4CCN(S(=O)(=O)c5ccc(OC(C)C)cc5)C4)cn(CC(=O)O)c3c2)cc1` (stereo not drawn) [Compound I-74], on DP receptor [2], the IC50 amounted to 1.9 nM.
On DP receptor [1], `CC(C)Oc1ccc(S(=O)(=O)N2CCC(c3cn(CC(=O)O)c4cc(F)ccc34)C2)cc1` (stereo not drawn) [Compound I-34] showed a Ki of 3.4 nM. In addition, the IC50 on DP receptor [2] is 2.3 nM.
As for `CC(C)Oc1ccc(S(=O)(=O)N2CCC(c3cn(CC(=O)O)c4cc(-c5cccc(C#N)c5)ccc34)C2)cc1` (stereo not drawn) [Compound I-73], at DP receptor [2], the IC50 was 2 nM.
At DP receptor [1], `CCOc1ccc(S(=O)(=O)N2CCC(c3cn(CC(=O)O)c4ccc(Cl)cc34)C2)cc1` (stereo not drawn) [Compound I-38] showed a Ki of 4.7 nM. Also, on DP receptor [2], the IC50 worked out at 2 nM.
`CC(C)Oc1ccc(S(=O)(=O)N2CCC(c3cn(CC(=O)O)c4cc(Br)ccc34)C2)cc1` (stereo not drawn) [Compound I-60] came in with a Ki at DP receptor [1] of 3.5 nM. Further, the IC50 on DP receptor [2] amounted to 0.73 nM.
Take `CC(C)Oc1ccc(S(=O)(=O)N2CCC(c3cn(CC(=O)O)c4cc(-c5nncs5)ccc34)CC2)cc1` [Compound I-102]: the IC50 on DP receptor [2] was 0.56 nM.
In the case of `CC(C)Oc1ccc(S(=O)(=O)N2CCC(c3cn(CC(=O)O)c4cc(Br)ccc34)C2)cc1F` (stereo not drawn) [Compound I-86], the IC50 at DP receptor [2] turned out to be 1.3 nM.
Consider `CC(C)Oc1ccc(S(=O)(=O)N2CCC(c3cn(CC(=O)O)c4cc(-c5ccc6c(c5)OCO6)ccc34)C2)cc1` (stereo not drawn) [Compound I-80], for which the IC50 at DP receptor [2] came out at 1.4 nM.
Turning to `CC(C)Sc1ccc(S(=O)(=O)N2CCC(c3cn(CC(=O)O)c4ccc(Cl)cc34)C2)cc1` (stereo not drawn) [Compound I-59], the IC50 on DP receptor [2] was 1.1 nM.
Consider `CC(C)Oc1ccc(S(=O)(=O)N2CCC(c3cn(CC(=O)O)c4cc(C#N)ccc34)CC2)cc1` [Compound I-98], for which the IC50 on DP receptor [2] was 0.97 nM.
